In patent publication US9169254B2, “Spiroimidazolone derivative” (Chugai Seiyaku Kabushiki Kaisha, priority 2009, dated 2015):
Counter-ions that a name gives are not always drawn.

Target: T1, human PTH1 receptor (Homo sapiens, UniProt Q03431)
T1 sequence (Q03431 27-593): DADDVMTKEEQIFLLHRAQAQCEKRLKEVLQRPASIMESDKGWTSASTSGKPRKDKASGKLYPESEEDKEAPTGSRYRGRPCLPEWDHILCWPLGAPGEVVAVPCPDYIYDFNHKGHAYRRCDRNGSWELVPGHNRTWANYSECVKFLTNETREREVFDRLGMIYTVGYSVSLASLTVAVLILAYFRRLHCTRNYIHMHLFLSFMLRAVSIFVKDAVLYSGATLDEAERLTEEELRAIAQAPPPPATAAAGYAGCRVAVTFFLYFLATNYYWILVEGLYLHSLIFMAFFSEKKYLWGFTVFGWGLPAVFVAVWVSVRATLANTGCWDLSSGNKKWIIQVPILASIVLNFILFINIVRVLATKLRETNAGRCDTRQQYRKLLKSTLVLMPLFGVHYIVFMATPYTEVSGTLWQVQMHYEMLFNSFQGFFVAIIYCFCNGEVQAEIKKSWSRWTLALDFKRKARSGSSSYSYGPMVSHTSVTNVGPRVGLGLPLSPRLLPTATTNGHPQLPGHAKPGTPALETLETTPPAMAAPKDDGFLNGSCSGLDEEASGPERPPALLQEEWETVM
Assay: In vitro cAMP signal activity in HKRK-B7 cells (LLC-PK1 cells overexpressing the human PTH1 receptor)
Format: cell-based
Conditions: HKRK-B7 cells; compound at 1×10^−3 M; cAMP produced as percentage of that produced by hPTH(1-34) at 100 nM

Row | Compound | cAMP production activity (%)
1 | Cc1cc(C(=O)N(C)C)c(F)cc1CCS(=O)(=O)N1CCC2(CC1)N=C(c1cccc(C(F)(F)F)c1)NC2=O [Compound 418, 2-Fluoro-5,N,N-trimethyl-4-{2-[4-oxo-2-(3-trifluoromethyl-phenyl)-1,3,8-triaza-spiro[4.5]dec-1-ene-8-sulfonyl]-ethyl}-benzamide] | 84%
2 | Cc1cc(C(=O)N2CCC(O)CC2)c(F)cc1CCS(=O)(=O)N1CCC2(CC1)N=C(c1cccc(C(F)(F)F)c1)NC2=O [Compound 419, 8-{2-[5-fluoro-4-(4-hydroxy-piperidine-1-carbonyl)-2-methyl-phenyl]-ethanesulfonyl}-2-(3-trifluoromethyl-phenyl)-1,3,8-triaza-spiro[4.5]dec-1-en-4-one] | 96%
3 | O=C(Cc1c[nH]c2cccc(CCS(=O)(=O)N3CCC4(CC3)N=C(C3CCCCC3)NC4=O)c12)NCc1ccccc1 [Compound 420, N-Benzyl-2-{4-[2-(2-cyclohexyl-4-oxo-1,3,8-triaza-spiro[4.5]dec-1-ene-8-sulfonyl)-ethyl]-1H-indol-3-yl}-acetamide] | 31%
4 | CNC(=O)c1ccccc1CCS(=O)(=O)N1CCC2(CC1)N=C(C1CCCCC1)NC2=O [Compound 421, 2-[2-(2-Cyclohexyl-4-oxo-1,3,8-triaza-spiro[4.5]dec-1-ene-8-sulfonyl)-ethyl]-N-methyl-benzamide] | 68%
5 | O=C(Nc1ccncc1)c1cccc(CCS(=O)(=O)N2CCC3(CC2)N=C(C2CCCCC2)NC3=O)c1 [Compound 422, 3-[2-(2-cyclohexyl-4-oxo-1,3,8-triaza-spiro[4.5]dec-1-ene-8-sulfonyl)-ethyl]-N-pyridin-4-yl-benzamide] | 14%
6 | O=C(CO)N1CCCC(C2=NC3(CCN(S(=O)(=O)c4cccc(Cl)c4)CC3)C(=O)N2)C1 (centres unmarked) [Compound 424, 8-(3-chloro-benzenesulfonyl)-2-[1-(2-hydroxy-acetyl)-piperidin-3-yl]-1,3,8-triaza-spiro[4.5]dec-1-en-4-one] | 2.5%
7 | O=C(c1ccc(Cl)cc1)N1CCCC(C2=NC3(CCN(S(=O)(=O)c4cccc(Cl)c4)CC3)C(=O)N2)C1 (centres unmarked) [Compound 425, 8-(3-Chloro-benzenesulfonyl)-2-[1-(4-chloro-benzoyl)-piperidin-3-yl]-1,3,8-triaza-spiro[4.5]dec-1-en-4-one] | 17%
8 | COc1cccc(C(=O)N2CCCC(C3=NC4(CCN(S(=O)(=O)c5cccc(Cl)c5)CC4)C(=O)N3)C2)c1 (centres unmarked) [Compound 426, 8-(3-chloro-benzenesulfonyl)-2-[1-(3-methoxy-benzoyl)-piperidin-3-yl]-1,3,8-triaza-spiro[4.5]dec-1-en-4-one] | 16%
9 | O=C(c1ccc2[nH]ccc2c1)N1CCCC(C2=NC3(CCN(S(=O)(=O)CCc4cccc5ccccc45)CC3)C(=O)N2)C1 (centres unmarked) [Compound 428, 2-[1-(1H-Indol-5-carbonyl)-piperidin-3-yl]-8-(2-naphthalen-1-yl-ethanesulfonyl)-1,3,8-triaza-spiro[4.5]dec-1-en-4-one] | 8.8%
10 | O=C(C1CCc2ccccc2C1)N1CCCC(C2=NC3(CCN(S(=O)(=O)CCc4cccc5ccccc45)CC3)C(=O)N2)C1 (centres unmarked) [Compound 430, 8-(2-naphthalen-1-yl-ethanesulfonyl)-2-[1-(1,2,3,4-tetrahydro-naphthalene-2-carbonyl)-piperidin-3-yl]-1,3,8-triaza-spiro[4.5]dec-1-en-4-one] | 23%
11 | O=C(c1ccc2ncccc2c1)N1CCCC(C2=NC3(CCN(S(=O)(=O)CCc4cccc5ccccc45)CC3)C(=O)N2)C1 (centres unmarked) [Compound 431, 8-(2-naphthalen-1-yl-ethanesulfonyl)-2-[1-(quinoline-6-carbonyl)-piperidin-3-yl]-1,3,8-triaza-spiro[4.5]dec-1-en-4-one] | 14%
12 | O=C(Cc1cnc[nH]1)N1CCCC(C2=NC3(CCN(S(=O)(=O)CCc4cccc5ccccc45)CC3)C(=O)N2)C1 (centres unmarked) [Compound 432, 2-[1-(2-3H-imidazol-4-yl-acetyl)-piperidin-3-yl]-8-(2-naphthalen-1-yl-ethanesulfonyl)-1,3,8-triaza-spiro[4.5]dec-1-en-4-one] | 5.1%
13 | Cc1oc(-c2ccccc2)nc1CC(=O)N1CCCC(C2=NC3(CCN(S(=O)(=O)CCc4cccc5ccccc45)CC3)C(=O)N2)C1 (centres unmarked) [Compound 434, 2-{1-[2-(5-methyl-2-phenyl-oxazol-4-yl)-acetyl]-piperidin-3-yl}-8-(2-naphthalen-1-yl-ethanesulfonyl)-1,3,8-triaza-spiro[4.5]dec-1-en-4-one] | 25%
14 | O=C(Cc1ccncc1)N1CCCC(C2=NC3(CCN(S(=O)(=O)CCc4cccc5ccccc45)CC3)C(=O)N2)C1 (centres unmarked) [Compound 438, 8-(2-naphthalen-1-yl-ethanesulfonyl)-2-[1-(2-pyridin-4-yl-acetyl)-piperidin-3-yl]-1,3,8-triaza-spiro[4.5]dec-1-en-4-one] | 14%
15 | CC(C)(C)OCC(=O)N1CCCC(C2=NC3(CCN(S(=O)(=O)CCc4cccc5ccccc45)CC3)C(=O)N2)C1 (centres unmarked) [Compound 439, 2-[1-(2-tert-butoxy-acetyl)-piperidin-3-yl]-8-(2-naphthalen-1-yl-ethanesulfonyl)-1,3,8-triaza-spiro[4.5]dec-1-en-4-one] | 33%
16 | NCC(=O)N1CCCC(C2=NC3(CCN(S(=O)(=O)c4cccc(Cl)c4)CC3)C(=O)N2)C1 (centres unmarked) [Compound 442, 2-[1-(2-Amino-acetyl)-piperidin-3-yl]-8-(3-chloro-benzenesulfonyl)-1,3,8-triaza-spiro[4.5]dec-1-en-4-one] | 2.5%
17 | CNC1CCN(C(=O)c2ccc(CCS(=O)(=O)N3CCC4(CC3)N=C(c3cccc(C(F)(F)F)c3)NC4=O)c(C)c2)C1 (centres unmarked) [Compound 444, 8-{2-[2-Methyl-4-(3-methylamino-pyrrolidine-1-carbonyl)-phenyl]-ethanesulfonyl}-2-(3-trifluoromethyl-phenyl)-1,3,8-triaza-spiro[4.5]dec-1-en-4-one] | 46%

Second part, the compound after the results:

Row | cAMP production activity (%) | Compound
18 | 97% | Cc1cc(C(=O)N2CCSC2)ccc1CCS(=O)(=O)N1CCC2(CC1)N=C(c1cccc(OC(F)(F)F)c1)NC2=O [Compound 417, 8-{2-[2-methyl-4-(thiazolidine-3-carbonyl)-phenyl]-ethanesulfonyl}-2-(3-trifluoromethoxy-phenyl)-1,3,8-triaza-spiro[4.5]dec-1-en-4-one]
19 | 42% | CC(C)(C)CC(=O)N1CCCC(C2=NC3(CCN(S(=O)(=O)c4cccc(Cl)c4)CC3)C(=O)N2)C1 (centres unmarked) [Compound 423, 8-(3-Chloro-benzenesulfonyl)-2-[1-(3,3-dimethyl-butyryl)-piperidin-3-yl]-1,3,8-triaza-spiro[4.5]dec-1-en-4-one]
20 | 38% | O=C(CCc1ccccc1)N1CCCC(C2=NC3(CCN(S(=O)(=O)CCc4cccc5ccccc45)CC3)C(=O)N2)C1 (centres unmarked) [Compound 429, 8-(2-naphthalen-1-yl-ethanesulfonyl)-2-[1-(3-phenyl-propionyl)-piperidin-3-yl]-1,3,8-triaza-spiro[4.5]dec-1-en-4-one]
21 | 18% | Cc1nc(CC(=O)N2CCCC(C3=NC4(CCN(S(=O)(=O)CCc5cccc6ccccc56)CC4)C(=O)N3)C2)c(C)s1 (centres unmarked) [Compound 433, 2-{1-[2-(2,5-dimethyl-thiazol-4-yl)-acetyl]-piperidin-3-yl}-8-(2-naphthalen-1-yl-ethanesulfonyl)-1,3,8-triaza-spiro[4.5]dec-1-en-4-one]
22 | 17% | O=C(Cc1ccccn1)N1CCCC(C2=NC3(CCN(S(=O)(=O)CCc4cccc5ccccc45)CC3)C(=O)N2)C1 (centres unmarked) [Compound 435, 8-(2-naphthalen-1-yl-ethanesulfonyl)-2-[1-(2-pyridin-2-yl-acetyl)-piperidin-3-yl]-1,3,8-triaza-spiro[4.5]dec-1-en-4-one]
23 | 28% | O=C(CCCOCc1ccccc1)N1CCCC(C2=NC3(CCN(S(=O)(=O)CCc4cccc5ccccc45)CC3)C(=O)N2)C1 (centres unmarked) [Compound 436, 2-[1-(4-benzyloxy-butyryl)-piperidin-3-yl]-8-(2-naphthalen-1-yl-ethanesulfonyl)-1,3,8-triaza-spiro[4.5]dec-1-en-4-one]
24 | 45% | O=C(CCCc1ccccc1)N1CCCC(C2=NC3(CCN(S(=O)(=O)CCc4cccc5ccccc45)CC3)C(=O)N2)C1 (centres unmarked) [Compound 437, 8-(2-naphthalen-1-yl-ethanesulfonyl)-2-[1-(4-phenyl-butyryl)-piperidin-3-yl]-1,3,8-triaza-spiro[4.5]dec-1-en-4-one]
25 | 24% | O=C(/C=C/c1ccccc1)N1CCCC(C2=NC3(CCN(S(=O)(=O)CCc4cccc5ccccc45)CC3)C(=O)N2)C1 (centres unmarked) [Compound 441, 8-(2-Naphthalen-1-yl-ethanesulfonyl)-2-{1-[(E)-(3-phenyl-acryloyl)]-piperidin-3-yl}-1,3,8-triaza-spiro[4.5]dec-1-en-4-one]
26 | 83% | Cc1cc(C(=O)N2CCC(N)C2)ccc1CCS(=O)(=O)N1CCC2(CC1)N=C(c1cccc(C(F)(F)F)c1)NC2=O (centres unmarked) [Compound 445, 8-{2-[4-(3-amino-pyrrolidine-1-carbonyl)-2-methyl-phenyl]-ethanesulfonyl}-2-(3-trifluoromethyl-phenyl)-1,3,8-triaza-spiro[4.5]dec-1-en-4-one hydrochloride]
